Assay results published in US20070142433A1, “Angiogenesis-affecting compounds and methods of use thereof” (priority 2004, published 2007).
Structures can show the parent of a compound that is named as a salt.

Tests used:
[1] = tested on: HUVEC sprouting; assay: Primary angiogenesis screen, HUVEC spheroid evaluation (EC sprouting); assay type: cell-based, human; conditions: HUVEC spheroids in collagen gel, VEGF-supplemented, 24 hours
Experimental: A test substance was selected for evaluation in angiogenesis screens. The test substance was synthesized or obtained as appropriate and stored at −20° C. in DMSO. Prior to use, the test substance was thawed and 5 mM of the substance was diluted to a 10 fold concentrated working solution (100 μM) in endothelial cell basal medium. The basal medium fraction was supplemented with 25 ng VEGF/100 μl for the stimulation of HUVEC sprouting.
The screening procedures were modified versions of those described by Korff and Augustin (J Cell Sci 112: 3249-58, 1999). By way of summary, spheroids were prepared by pipetting 400 human umbilical vein endothelial cells (HUVEC) into each well of nonadhesive 96-well plates. Prior to use the HUVEC were cultured according to the supplier's instructions (PromoCell, Heidelberg, Germany). The cells were allowed to aggregate overnight into spheroids (Korff and Augustin: J Cell Biol 143: 1341-52, 1998). After aggregation, 48 HUVEC spheriods were harvested. Each harvested spheroid was seeded in 900 μl of methocel-collagen solution and pipetted into an individual well of a 24-well plate to allow collagen gel polymerization.
(§1) Thirty (30) minutes after seeding, the test substance was added. The working dilution (10 fold concentration) was utilized, 100 μl was pipetted on top of the polymerized collagen gel in each well. The plates were then incubated at 37° C. for 24 hours. At the end of the incubation period the plates were fixed by adding 1 ml paraformaldehyde (10%) to each well.
The HUVEC spheriods were microscopically assayed for endothelial cell (EC) sprouting intensity. The degree of EC sprouting was classified into one of four groups by comparing the degree of sprouting to that observed in VEGF control cells. […] For exemplary results, see FIG. 1.

[2] = tested on: angiogenesis induced by vascular permeability factor/vascular endothelial growth factor; conditions: Basu S et al., Nat Med 2001; cited from earlier work
[3] = tested on: HUVEC sprouting; assay: 3D angiogenesis assay of stimulators (HUVEC sprouting alone, with VEGF, with PTK787/ZK222584); assay type: cell-based, human; conditions: for HUVEC sprouting, compounds alone, compared to VEGF-induced sprouting: without addition of VEGF, 24 hours, basal sprouting subtracted, FIG. 22
Experimental: The HUVEC monolayer was treated for 6 hours with the compounds then the induced transcriptional changes, when compared to untreated HUVEC, were determined. The compounds were tested according to their ability to induce sprouting without addition of VEGF, in combination with VEGF and together with the VEGFR-2 inhibitor PTK787/ZK222584 (1 μM).

[4] = tested on: NHDF (human dermal fibroblasts) scattering; assay: NHDF spheroid evaluation (fibroblast scattering); assay type: cell-based; conditions: NHDF spheroids in collagen gel, no supplements, 24 hours
Experimental: Where the test compound was classified as an inhibitor or stimulator, a second screening process was performed. In the second screen, the test substance was thawed and 5 mM of the substance was diluted to a 10 fold concentrated working solution (100 μM) in endothelial cell basal medium. No supplements were used in the basal medium.
Instead of HUVEC, spheroids were prepared by pipetting 400 human dermal fibroblasts (NHDF) into each well of nonadhesive 96-well plates. Prior to use the NHDF were cultured according to the supplier's instructions (PromoCell, Heidelberg, Germany). The cells were allowed to aggregate overnight into spheroids (Korff and Augustin: J Cell Biol 143: 1341-52, 1998). After aggregation, 48 NHDF spheroids were harvested. Each of the harvested spheroids was seeded in 900 μl of methocel-collagen solution and pipetted into an individual well of a 24-well plate to allow collagen gel polymerization.
as §1
The NHDF spheroids were microscopically assayed for fibroblast scattering intensity. […] For exemplary results, see FIG. 1.

[5] = tested on: Fibroblast; assay: Cell proliferation assay (crystal violet), Fibroblast; assay type: cell-based; conditions: 72 hours, OD 595 nm
Experimental: (§2) In order to further confirm the surprising results described above, the compounds were tested in a cell proliferation assay. Crystal violet was used to measure cell proliferation; this basic dye stains cell nuclei and provides a sensitive, rapid evaluation. Light absorption of unstained or destained cell layers is negligible, making it possible to perform cell number measurements in wells. Six cell types (HUVEC, HDMEC, SMC, Fibroblast, A375 and RENCA) were plated and treated with the compounds in a log2 titration for 72 hours. The optimal cell number for each cell type was determined and optical density (OD) was measured at 595 nm. Each data point was measured in quadruplicate. The assay was stopped after 72 hours and subsequently analyzed. The OD-value of the plated cells before addition of the compounds was subtracted from all OD-values obtained after treatment. The percentage in relation to control proliferation was then calculated. Negative values therefore represent a count of fewer cells than were plated. The IC50 is given below in Table 1. Results are shown as a percentage in relation to the control proliferation. The IC50 were calculated using GraphPad Prism software (GraphPad Software, Inc.). Perhexiline results are depicted graphically in FIGS. 4A-4C and Erythromycin results in FIGS. 5A-5C.

[6] = tested on: HDMEC; assay: Cell proliferation assay (crystal violet), HDMEC; assay type: cell-based; conditions: 72 hours, OD 595 nm
Experimental: as §2

[7] = tested on: A375; assay: Cell proliferation assay (crystal violet), A375; assay type: cell-based; conditions: Homo sapiens, A-375, 72 hours, OD 595 nm
Experimental: as §2

[8] = tested on: SMC; assay: Cell proliferation assay (crystal violet), SMC; assay type: cell-based; conditions: 72 hours, OD 595 nm
Experimental: as §2

[9] = tested on: RENCA; assay: Cell proliferation assay (crystal violet), RENCA; assay type: cell-based; conditions: 72 hours, OD 595 nm
Experimental: as §2

[10] = tested on: B16F10 cells; assay: Cell viability of B16F10 cells; assay type: cell-based; conditions: Mus musculus, B16-F10; after 24 and 48 hours incubation
Experimental: A cell viability assay based on cellular reduction of resazurin to the fluorescent product resorufin was performed. Viable cells can metabolize and reduce the dye, whereas dead cells rapidly lose the capacity to do so, making the increase in fluorescence directly proportional to the number of viable cells. The tested compounds were added in a log2 titration and viable cells were analyzed 24 hours after treatment. The fluorescence was determined at an excitation wavelength of 560 nm and an emission wavelength of 590 nm. The percentage of viable cells in relation to the untreated control proliferation was calculated. […] Perhexiline results are depicted graphically in FIGS. 6A-6C and Erythromycin results in FIGS. 7A-7C.
Through the two aforementioned assays it was determined that RENCA cells are more sensitive when treated with Perhexiline than the other cell types in the proliferation assay and in the viability assay. Therefore, the B16F10 cells were subsequently tested. The B16F10 tumor model, like the RENCA model, is an orthotopic tumor model.

[11] = tested on: HUVEC; assay: Cell proliferation assay (crystal violet), HUVEC; assay type: cell-based; conditions: Homo sapiens, 72 hours, OD 595 nm
Experimental: In order to further confirm the surprising results described above, the compounds were tested in a cell proliferation assay. Crystal violet was used to measure cell proliferation; this basic dye stains cell nuclei and provides a sensitive, rapid evaluation. Light absorption of unstained or destained cell layers is negligible, making it possible to perform cell number measurements in wells.
Six cell types (HUVEC, HDMEC, SMC, Fibroblast, A375 and RENCA) were plated and treated with the compounds in a log2 titration for 72 hours. The optimal cell number for each cell type was determined and optical density (OD) was measured at 595 nm. Each data point was measured in quadruplicate. The assay was stopped after 72 hours and subsequently analyzed.
The OD-value of the plated cells before addition of the compounds was subtracted from all OD-values obtained after treatment. The percentage in relation to control proliferation was then calculated. Negative values therefore represent a count of fewer cells than were plated. The IC50 is given below in Table 1. Results are shown as a percentage in relation to the control proliferation. The IC50 were calculated using GraphPad Prism software (GraphPad Software, Inc.). Perhexiline results are depicted graphically in FIGS. 4A-4C and Erythromycin results in FIGS. 5A-5C. […]

[12] = tested on: tumor size and vessel density; assay: Further studies with other CPT-1 inhibitors; conditions: CPT-1 inhibitors at 10 and 100 μm; FIGS. 37A-40
[13] = tested on: HUVEC sprouting; assay: Spheroid-based 3D angiogenesis assay (IC50, alone or with VEGFR-2 inhibitor); assay type: cell-based, human; conditions: determined in the spheroid-based 3D assay (FIG. 10); read-out: IC50 of the VEGFR-2 inhibitors
Source text: Therefore, the assay was applied to test compounds alone or in combination with a VEGFR-2 inhibitor to address changes in IC50. […] The VEGFR-2 inhibitor was applied at a concentration close to the IC50.

[14] = tested on: Alexander cells (PLC/PRF/5) subcutaneous tumor; assay: Hepato-Cellular Carcinoma Model (HCC) in vivo study, subcutaneous Alexander cells; set-up: species or system NMRI nu/nu mice; conditions: subcutaneous Alexander cell tumors in mice, about 21 days of treatment; FIGS. 28-30
Experimental: Monolayers of Alexander cells can be grown in 85% Dulbecco's Modified Eagle's Medium (DMEM), 15% Fetal Bovine Serum (FBS), 4 mM L-glutamine, 100 units penicillinG/ml, and 100 μg of streptomycin-sulfate/ml. The cells can be cultured in a humidified atmosphere of 90% air and 10% carbon dioxide at 37° C. Media may preferably be changed every 4 days.
Six to eight week old female NMRI^−nu/nu mice could be utilized. The Alexander cells can be implanted in the left flank region of the mice, for example, by injecting 4×10^7 cells in 0.2 ml aliquots into the subcutaneous space of the left flank using a 29 G needle syringe. After inoculation the appearing subcutaneous tumours can be measured by callipering and multiplying the distances of all three dimensions.
Therapy can be initiated after the tumor size has reached a volume of approximately 100 mm^3 (day 1 of the study), and continue for about 21 days.
As shown, Group 1 would serve as control, where the animals would receive no further treatment after injection of Alexander cells.
After approximately 21 days of treatment, mice could be sacrificed and tumors collected and optionally stored appropriately at −80° C. For histological examination of the tumor vasculature, cryosections of the tissues (thickness of 5-10 μm) can be taken. For visualization of the blood vessels, immunohistochemical staining for CD 31 (PECAM-1) can be performed, and vessels counted microscopically using a defined magnification (×200).

With Clc1ccc(CSC(Cn2ccnc2)c2ccc(Cl)cc2Cl)cc1 (racemic) [Sulconazole, (±)-1-[2.4-dichloro-b-[(p-chlorobenzyl)-thio]-phenethyl]imidazole mononitrate] the “EC sprouting intensity compared with VEGF control” value [1] was “angiogenesis stimulators”.

In the case of CC(C)C[C@H]1C(=O)N2CCC[C@H]2[C@]2(O)O[C@](NC(=O)[C@@H]3C=C4c5cccc6[nH]c(Br)c(c56)C[C@H]4N(C)C3)(C(C)C)C(=O)N12 [Bromocriptine, Bromocriptine mesylate], the “effect on angiogenesis (literature)” value [2] is given as “prevent angiogenesis”, the “EC sprouting intensity compared with VEGF control” value [1] is given as “angiogenesis stimulator” and the “HUVEC sprouting, compounds alone, compared to VEGF-induced sprouting” value [3] is given as “stimulated sprouting in excess of the VEGF-induced sprouting”.

With C#C[C@]1(O)CC[C@H]2[C@@H]3CCC4=Cc5oncc5C[C@]4(C)[C@H]3CC[C@@]21C [Danazol] the “fibroblast scattering (invasion) effect” value [4] was “no fibroblast invasion effect” and the “EC sprouting intensity compared with VEGF control” value [1] was “increased sprouting stimulation”.

In the case of NCCc1ccc(O)c(O)c1 [Dopamine], the “effect on angiogenesis (literature)” value [2] is given as “prevent angiogenesis”.

In the case of Clc1ccc(COC(Cn2ccnc2)c2ccc(Cl)cc2Cl)cc1.O=[N+]([O-])O (centres unmarked) [Econazole, 1-[2-{(4-chloro-phenyl)methoxy}-2-(2,4-dichlorophenyl)ethyl]-1H-imidazole mononitrate], the “EC sprouting intensity compared with VEGF control” value [1] is reported as “angiogenesis stimulators”.

In the case of CC[C@H]1OC(=O)[C@H](C)[C@@H](O[C@H]2C[C@@](C)(OC)[C@@H](O)[C@H](C)O2)[C@H](C)[C@@H](O[C@@H]2O[C@H](C)C[C@H](N(C)C)[C@H]2O)[C@](C)(O)C[C@@H](C)C(=O)[C@H](C)[C@@H](O)[C@]1(C)O [Erythromycin], the IC50 [5] is reported as over 100 µM, the IC50 [6] is reported as about 100 µM and the IC50 [7] is reported as over 100 µM. For the same molecule, the IC50 [8] was over 100 µM, the “fibroblast scattering (invasion) effect” value [4] was “no fibroblast invasion effect” and the IC50 [9] was 56 µM. For the same molecule, the IC50 [10] was 10 µM, the IC50 [11] was over 100 µM and the “EC sprouting intensity compared with VEGF control” value [1] was “sprouting inhibition”.

In the case of CCc1cc(Cl)c(OC)c(C(=O)NC[C@@H]2CCCN2CC)c1O [Eticlopride], the “effect on angiogenesis (literature)” value [2] is listed as “not effect on angiogenesis” and the “HUVEC sprouting, compounds alone, compared to VEGF-induced sprouting” value [3] is listed as “stimulated sprouting in excess of the VEGF-induced sprouting”.

For CCOC(=O)[C@@]1(CCCCCCOc2ccc(Cl)cc2)CO1 [Etomoxir], the “effects on tumor size and vessel density (as seen with Perhexiline)” value (from here on “effects on tumor size and vessel density”) [12] was “not seen”.

For CCN(CC)C(=O)N[C@H]1C=C2c3cccc4[nH]cc(c34)C[C@H]2N(C)C1 [Lisuride (S)(−)], the “fibroblast scattering (invasion) effect” value [4] was “no fibroblast invasion effect” and the “EC sprouting intensity compared with VEGF control” value [1] was “increased sprouting stimulation”.

For CC(C)(COP(=O)(O)OP(=O)(O)OC[C@H]1O[C@@H](n2cnc3c(N)ncnc32)[C@H](O)[C@@H]1OP(=O)(O)O)[C@@H](O)C(=O)NCCC(=O)NCCSC(=O)CC(=O)O [Malonyl-CoA], the “effects on tumor size and vessel density” value [12] was “not seen”.

In the case of Clc1ccc(COC(Cn2ccnc2)c2ccc(Cl)cc2Cl)c(Cl)c1 (centres unmarked) [Miconazole], the “fibroblast scattering (invasion) effect” value [4] is reported as “no fibroblast invasion effect” and the “EC sprouting intensity compared with VEGF control” value [1] is reported as “increased sprouting stimulation”.

With Clc1ccc(Nc2nnc(Cc3ccncc3)c3ccccc23)cc1 [PTK787/ZK222584] the IC50 [13] was 0.1 µM, the “tumor growth compared to control” value [14] was “reduced” and the VEGF-induced sprouting ([3]; at a concentration of 1 μM) was “completely prevents VEGF-induced sprouting”.

In the case of COc1ccc(CN2CCNCC2)c(OC)c1OC [Trimetazidine dihydrochloride], the “effects on tumor size and vessel density” value [12] is reported as “not seen”.
